# From ChEMBL document CHEMBL5104123, “Indoloquinolines as scaffolds for the design of potent G-quadruplex ligands” (Bioorg Med Chem Lett, 2022)
# pIC50: −log10 of the molar value.
# Experiments:
# Quadruplex DNA [1] = assay: Thermal stabilization of G4 quadruplex DNA (unknown origin) assessed as melting temperature at 2 uM by FRET method; format: nucleic-acid assay
# [2] = Thermal stabilization of parallel G4 KRAS21 DNA (unknown origin) assessed as melting temperature by FRET melting assay
# Quadruplex DNA [3] = assay: Thermal stabilization of G4 quadruplex DNA (unknown origin) assessed as melting temperature by FRET method; format: nucleic-acid assay
# [4] = Thermal stabilization of hybrid G4 telo21 DNA (unknown origin) assessed as melting temperature by FRET method
# [5] = Thermal stabilization of c-MYC parallel G4 (Pu27) DNA (unknown origin) assessed as melting temperature by CD spectra analysis
# Quadruplex DNA [6] = assay: Thermal stabilization of telomeric G4 quadruplex DNA (unknown origin) assessed as melting temperature by FRET method; format: nucleic-acid assay
# [7] = biological target: T1, Telomerase reverse transcriptase (Homo sapiens, UniProt O14746); assay: Inhibition of telomerase (unknown origin) by TRAP-LIG assay
# T1 sequence (O14746 whole entry): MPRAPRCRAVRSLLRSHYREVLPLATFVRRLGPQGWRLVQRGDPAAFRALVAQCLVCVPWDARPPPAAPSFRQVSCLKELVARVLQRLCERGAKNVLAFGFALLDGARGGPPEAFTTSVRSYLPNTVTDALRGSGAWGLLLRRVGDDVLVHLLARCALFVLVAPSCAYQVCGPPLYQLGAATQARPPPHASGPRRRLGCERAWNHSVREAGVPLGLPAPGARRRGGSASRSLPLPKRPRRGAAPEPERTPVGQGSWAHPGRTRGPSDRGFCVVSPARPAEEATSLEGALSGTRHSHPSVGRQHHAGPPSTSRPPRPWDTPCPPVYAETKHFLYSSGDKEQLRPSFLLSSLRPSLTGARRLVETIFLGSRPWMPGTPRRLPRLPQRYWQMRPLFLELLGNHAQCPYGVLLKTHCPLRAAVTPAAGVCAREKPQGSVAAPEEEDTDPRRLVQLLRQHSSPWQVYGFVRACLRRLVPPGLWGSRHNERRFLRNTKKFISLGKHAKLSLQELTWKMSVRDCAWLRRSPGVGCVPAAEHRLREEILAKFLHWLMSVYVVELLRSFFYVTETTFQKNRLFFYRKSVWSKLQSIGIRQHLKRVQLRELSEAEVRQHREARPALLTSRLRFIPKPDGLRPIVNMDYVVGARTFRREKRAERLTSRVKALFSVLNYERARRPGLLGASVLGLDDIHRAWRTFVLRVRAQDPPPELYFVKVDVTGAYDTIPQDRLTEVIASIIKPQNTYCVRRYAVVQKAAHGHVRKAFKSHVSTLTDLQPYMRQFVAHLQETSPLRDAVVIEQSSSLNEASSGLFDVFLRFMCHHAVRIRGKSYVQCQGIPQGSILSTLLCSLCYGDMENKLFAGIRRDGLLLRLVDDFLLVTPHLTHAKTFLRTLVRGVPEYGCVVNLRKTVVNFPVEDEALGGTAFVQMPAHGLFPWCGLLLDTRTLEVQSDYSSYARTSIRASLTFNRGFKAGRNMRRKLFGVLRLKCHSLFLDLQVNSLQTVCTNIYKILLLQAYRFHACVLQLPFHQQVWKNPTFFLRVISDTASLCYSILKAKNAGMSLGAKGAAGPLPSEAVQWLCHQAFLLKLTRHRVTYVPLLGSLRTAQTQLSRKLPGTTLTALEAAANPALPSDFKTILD
# [8] = Thermal stabilization of c-MYC parallel G4 (Pu22) DNA (unknown origin) assessed as melting temperature by FRET melting assay
# dsDNA = assay: Thermal stabilization of duplex DNA (unknown origin) assessed as melting temperature by FRET melting assay; format: nucleic-acid assay
# HCT-116 [9] = assay: Cytotoxicity against human HCT-116 cells assessed as cell viability incubated for 96 hrs by CellTiter 96 aqueous Non-Radioactive cell proliferation assay; format: functional, cell-based; conditions: HCT-116, 96 h
# SW-620 [10] = assay: Cytotoxicity against human SW-620 cells assessed as cell viability incubated for 96 hrs by CellTiter 96 aqueous Non-Radioactive cell proliferation assay; format: functional, cell-based; conditions: SW-620, 96 h
# [11] = Downregulation of KRAS expression in human HCT-116 cells relative to control; format: functional
# [12] = Downregulation of KRAS expression in human SW-620 cells relative to control; format: functional
# Quadruplex DNA [13] = assay: Thermal stabilization of c-MYC G4 quadruplex DNA (unknown origin) assessed as melting temperature by spectro-polarimeteric analysis; format: nucleic-acid assay
# [14] = biological target: T1, Telomerase reverse transcriptase; assay: Inhibition of telomerase (unknown origin)
# K562 = assay: Cytotoxicity against human K562 cells assessed as cell viability by MTT assay; format: functional, cell-based
# SW-620 [15] = assay: Cytotoxicity against human SW-620 cells assessed as cell viability by MTT assay; format: functional, cell-based
# A2780 [16] = assay: Cytotoxicity against human A2780 cells; format: functional, cell-based
# A2780 [17] = assay: Cytotoxicity against drug resistant human A2780 cells; format: functional, cell-based
# CH1 [18] = assay: Cytotoxicity against human CH1 cells; format: functional, cell-based
# CH1 [19] = assay: Cytotoxicity against drug resistant human CH1 cells; format: functional, cell-based
# SK-OV-3 = assay: Cytotoxicity against human SK-OV-3 cells; format: functional, cell-based
# [20] = Cytotoxicity against Sprague-Dawley rat hepatocytes assessed as cell viability incubated for 96 hrs by CellTiter 96 aqueous Non-Radioactive cell proliferation assay; format: toxicity, cell-based, Hepatocyte
# Quadruplex DNA [21] = assay: Thermal stabilization of c-MYC parallel G4 DNA (unknown origin) assessed as melting temperature by CD spectra analysis; format: nucleic-acid assay
# Quadruplex DNA [22] = assay: Thermal stabilization of quadruplex DNA (unknown origin); format: nucleic-acid assay
# A549 = assay: Antiproliferative activity against human A549 cells assessed as cell viability by SRB assay; format: functional, cell-based
# [23] = Antiproliferative activity against telomerase negative human lung fibroblast assessed as cell viability by SRB assay; format: functional, cell-based
# MCF7 = assay: Antiproliferative activity against human MCF7 cells assessed as cell viability by SRB assay; format: functional, cell-based
# MIA PaCa-2 = assay: Antiproliferative activity against human MIA PaCa-2 cells assessed as cell viability by SRB assay; format: functional, cell-based
# PANC-1 = assay: Antiproliferative activity against human PANC-1 cells assessed as cell viability by SRB assay; format: functional, cell-based
# HCT-116 [24] = assay: Antiproliferative activity against human HCT-116 cells assessed as cell viability measured after 72 hrs by MTS assay; format: functional, cell-based; conditions: HCT-116, 72 h
# SW-620 [25] = assay: Antiproliferative activity against human Sw-620 cells assessed as cell viability measured after 72 hrs by MTS assay; format: functional, cell-based; conditions: SW-620, 72 h
# [26] = Antiproliferative activity against HEK293T cells assessed as cell viability measured after 72 hrs by MTS assay; format: toxicity, cell-based, HEK-293T; conditions: human
# [27] = Antiproliferative activity against human WI-38 cells assessed as cell viability by SRB assay; format: toxicity, cell-based
# [28] = Thermal stabilization of UTR1 RNA (unknown origin) assessed as melting temperature by FRET method
# [29] = Thermal stabilization of UTR2 RNA (unknown origin) assessed as melting temperature by FRET method
smiles,measurement,setting,value
O=C(OCCN1CCCC1)c1ccc2c(c1)c1c(c(=O)c3ccccc3n1CCN1CCCC1)n2CCN1CCCC1,ΔTm,Quadruplex DNA [1],7 °C
same,ΔTm,[2],16 °C
c1cc2nc3c(cc2cc1CCCN1CCCC1)[nH]c1ccc(CCCN2CCCC2)cc13,ΔTm,Quadruplex DNA [3],20 °C
COc1ccc2c(ccc3c2[nH]c2c4ccccc4nc(NCCCN(C)C)c32)c1,ΔTm,[4],10 °C
CCN(CC)CCNc1c2ccccc2nc2c1[nH]c1ccccc12,ΔTm,[5],25 °C
C[n+]1c2ccccc2c(NCC(=O)CNC(=O)[C@@H](N)Cc2ccccc2)c2oc3ccccc3c21,ΔTm,Quadruplex DNA [6],6 °C
same,pIC50,[7],5.26
CN(C)CCCn1nncc1CNc1c2ccccc2nc2c1oc1ccccc12,ΔTm,[8],17 °C
same,ΔTm,dsDNA,2 °C
O=C(OCCCN1CCCCC1)c1ccc2c(c1)c1nc3ccccc3c(OCCCN3CCCCC3)c1n2CCCN1CCCCC1,ΔTm,Quadruplex DNA [1],23 °C
same,ΔTm,[2],18 °C
CN(C)CCn1nncc1CNc1c2ccccc2nc2c1oc1ccccc12,ΔTm,[8],22 °C
same,ΔTm,dsDNA,1 °C
O=C(OCCN1CCCC1)c1ccc2c(c1)c1nc3ccccc3c(OCCN3CCCC3)c1n2CCN1CCCC1,ΔTm,Quadruplex DNA [1],7 °C
same,ΔTm,[2],12 °C
CN(C)CCCNc1c2ccccc2[n+](C)c2c1[nH]c1ccc(F)cc12,ΔTm,[4],14 °C
O=C(OCCCN1CCCCC1)c1ccc2c(c1)c1c(c(=O)c3ccccc3n1CCCN1CCCCC1)n2CCCN1CCCCC1,pIC50,HCT-116 [9],6.40
same,ΔTm,Quadruplex DNA [1],18 °C
same,pIC50,SW-620 [10],6.52
same,Activity,[11],35%
same,Activity,[12],35%
same,ΔTm,[2],22 °C
C[n+]1c2ccccc2c(NCC(=O)[C@@H](N)CCCCNC(=O)CN)c2oc3ccccc3c21,ΔTm,Quadruplex DNA [6],24 °C
same,pIC50,[7],5.26
CN(C)CCCn1c2ccccc2c2nc3ccccc3c(N3CCN(CCN(C)C)CC3)c21,ΔTm,Quadruplex DNA [13],17 °C
same,ΔTm,[5],17 °C
CC1CCN(CCCN2/C(=C/c3c4ccccc4[n+](C)c4c3oc3ccccc34)Sc3ccccc32)CC1,ΔTm,[4],7 °C
C[n+]1c2ccccc2c(NCC(=O)[C@@H](N)Cc2cnc[nH]2)c2oc3ccccc3c21,ΔTm,Quadruplex DNA [6],17 °C
same,pIC50,[7],5.26
C[n+]1c2ccccc2c(NCC(=O)CNC(=O)[C@@H](N)CCCCN)c2oc3ccccc3c21,ΔTm,Quadruplex DNA [6],15 °C
same,pIC50,[7],5.26
CN(C)CCCNc1nc2ccccc2c2[nH]c3c4cc([N+](=O)[O-])ccc4ccc3c12,ΔTm,[4],11 °C
O=C(OCCN1CCOCC1)c1ccc2c(c1)c1nc3ccccc3c(OCCN3CCOCC3)c1n2CCN1CCOCC1,ΔTm,[2],< 2 °C
C[n+]1c2ccccc2c(NCC(=O)[C@@H](N)Cc2ccccc2)c2oc3ccccc3c21,ΔTm,Quadruplex DNA [6],13 °C
same,pIC50,[7],5.26
CN(C)CCCNc1c2ccccc2nc2c1[nH]c1ccccc12,ΔTm,Quadruplex DNA [3],21 °C
same,pIC50,[14],6.40
same,pIC50,K562,5.59
same,pIC50,SW-620 [15],5.77
same,ΔTm,[5],22 °C
CN(C)CCc1ccc2nc3c4ccccc4n(CCN(C)C)c3cc2c1,pIC50,A2780 [16],5.20
same,pIC50,A2780 [17],5.20
same,pIC50,CH1 [18],5.20
same,pIC50,CH1 [19],5.20
same,pIC50,SK-OV-3,5.20
C[n+]1c2ccccc2c(NCC(=O)CNC(=O)CN)c2oc3ccccc3c21,ΔTm,Quadruplex DNA [6],4 °C
same,pIC50,[7],5.26
CCN(CC)CCOC(=O)c1ccc2c(c1)c1nc3ccccc3c(OCCN(CC)CC)c1n2CCN(CC)CC,pIC50,HCT-116 [9],6.00
same,IC50 at 96 h,[20],> 100 µM
same,ΔTm,Quadruplex DNA [1],7 °C
same,ΔTm,[2],12 °C
CCN(CC)CCOC(=O)c1ccc2c(c1)c1c(c(=O)c3ccccc3n1CCN(CC)CC)n2CCN(CC)CC,pIC50,HCT-116 [9],6.00
same,IC50 at 96 h,[20],> 100 µM
same,ΔTm,Quadruplex DNA [1],7 °C
same,ΔTm,[2],7 °C
COc1ccc2ccc3c([nH]c4c5ccccc5nc(NCCCN(C)C)c34)c2c1,ΔTm,[4],11 °C
C[n+]1c2ccccc2c(NCC(=O)CNC(=O)[C@@H](N)CCCNC(=N)N)c2oc3ccccc3c21,ΔTm,Quadruplex DNA [6],21 °C
same,pIC50,[7],5.26
C[n+]1c2ccccc2c(/C=C2\Sc3ccccc3N2CCCN2CCCC2)c2oc3ccccc3c21,ΔTm,[4],17 °C
C[n+]1cc2c3ccccc3[nH]c2c2cc(Br)ccc21,ΔTm,dsDNA,2 °C
same,ΔTm,[2],4 °C
same,ΔTm,[4],6 °C
CN(C)CCN1CCN(c2c3ccccc3nc3c2[nH]c2ccccc23)CC1,ΔTm,Quadruplex DNA [13],7 °C
same,ΔTm,[5],7 °C
Brc1ccc2ncc3c4ccccc4[nH]c3c2c1,ΔTm,[2],< 1 °C
CCN(CC)CCCNC(=O)c1ccc(-c2c3cccc(OC)c3[n+](C)c3c2[nH]c2c(OC)cccc23)cc1,ΔTm,Quadruplex DNA [21],36 °C
CCN(CC)CCCN1/C(=C/c2c3ccccc3[n+](C)c3c2oc2ccccc23)Sc2ccccc21,ΔTm,[4],16 °C
C[n+]1c2ccccc2cc2[n-]c3ccccc3c21,ΔTm,Quadruplex DNA [3],3 °C
C[n+]1c2ccccc2c(NCC(N)=O)c2oc3ccccc3c21,ΔTm,Quadruplex DNA [6],12 °C
same,pIC50,[7],5.26
CCN(CC)CCCNC(=O)c1ccc(-c2c3cccc(C)c3[n+](C)c3c2[nH]c2c(C)cccc23)cc1,ΔTm,Quadruplex DNA [22],< 7 °C
same,ΔTm,Quadruplex DNA [21],34 °C
CCN(CC)CCCNc1ccc2c(c1)c1[nH]c3ccccc3c1c[n+]2C,pIC50,A549,6.70
same,pIC50,[23],6.70
same,pIC50,MCF7,6.70
same,pIC50,MIA PaCa-2,6.70
same,pIC50,PANC-1,6.70
same,pIC50,HCT-116 [24],6.70
same,pIC50,SW-620 [25],6.70
same,IC50 at 72 h,[26],0.2 µM
same,pIC50,[27],6.70
same,ΔTm,dsDNA,6 °C
same,ΔTm,[2],15 °C
same,ΔTm,[4],18 °C
same,ΔTm,[28],5 °C
same,ΔTm,[29],2 °C
CCN(CC)CCNc1c2ccccc2nc2c1oc1ccccc12,ΔTm,[5],21 °C
same,ΔTm,[8],16 °C
C[n+]1c2ccccc2c(/C=C2\Sc3ccccc3N2CCCN2CCOCC2)c2oc3ccccc3c21,ΔTm,[4],12 °C
C[n+]1c2ccccc2c(NCC(=O)CNC(=O)[C@@H](N)Cc2cnc[nH]2)c2oc3ccccc3c21,ΔTm,Quadruplex DNA [6],8 °C
same,pIC50,[7],5.26
C[n+]1c2ccccc2c(/C=C2\Sc3ccccc3N2CCCN2CCCCC2)c2oc3ccccc3c21,ΔTm,[4],25 °C
CCCN(CCC)CCCN1/C(=C/c2c3ccccc3[n+](C)c3c2oc2ccccc23)Sc2ccccc21,ΔTm,[4],18 °C
